Molecules are shown by their SMILES. A value given as a limit tells only on which side of the number the result lay.

Data set [1] concerns the target T1, Short transient receptor potential channel 6 (Homo sapiens, UniProt Q9Y210).
T1 sequence (Q9Y210 whole entry): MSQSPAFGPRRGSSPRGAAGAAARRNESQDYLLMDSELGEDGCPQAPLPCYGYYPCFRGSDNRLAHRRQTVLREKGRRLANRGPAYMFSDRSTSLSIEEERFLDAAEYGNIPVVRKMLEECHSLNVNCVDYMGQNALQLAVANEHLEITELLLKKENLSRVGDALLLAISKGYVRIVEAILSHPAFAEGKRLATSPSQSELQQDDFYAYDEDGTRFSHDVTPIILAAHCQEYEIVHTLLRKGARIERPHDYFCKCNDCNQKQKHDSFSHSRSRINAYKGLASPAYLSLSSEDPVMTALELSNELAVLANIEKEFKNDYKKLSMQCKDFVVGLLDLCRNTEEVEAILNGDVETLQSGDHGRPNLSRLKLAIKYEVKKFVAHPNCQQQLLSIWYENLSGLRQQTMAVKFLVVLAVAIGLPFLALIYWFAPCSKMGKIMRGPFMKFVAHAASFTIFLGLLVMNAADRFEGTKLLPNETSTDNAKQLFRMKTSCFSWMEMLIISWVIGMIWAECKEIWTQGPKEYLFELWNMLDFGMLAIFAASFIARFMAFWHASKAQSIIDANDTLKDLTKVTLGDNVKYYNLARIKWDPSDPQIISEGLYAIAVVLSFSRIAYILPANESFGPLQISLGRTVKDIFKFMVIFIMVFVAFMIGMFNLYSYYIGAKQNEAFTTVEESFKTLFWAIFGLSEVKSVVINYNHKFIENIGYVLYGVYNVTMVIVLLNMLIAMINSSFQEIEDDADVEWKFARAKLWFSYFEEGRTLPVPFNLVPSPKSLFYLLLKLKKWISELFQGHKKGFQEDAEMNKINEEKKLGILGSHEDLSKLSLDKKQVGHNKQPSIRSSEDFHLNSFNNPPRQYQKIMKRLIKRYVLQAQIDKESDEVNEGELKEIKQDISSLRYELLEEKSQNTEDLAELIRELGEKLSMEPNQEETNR
In words: Inhibition of human recombinant TRPC6 expressed in HEK293-MSRII cells assessed as carbachol-stimulated Ca2+/Na+ influx after 10 mins by FLIPR assay. The data set is classed as cell-based.

The target in data set [2] is T2, Short transient receptor potential channel 3 (Homo sapiens, UniProt Q13507).
T2 sequence (Q13507 whole entry): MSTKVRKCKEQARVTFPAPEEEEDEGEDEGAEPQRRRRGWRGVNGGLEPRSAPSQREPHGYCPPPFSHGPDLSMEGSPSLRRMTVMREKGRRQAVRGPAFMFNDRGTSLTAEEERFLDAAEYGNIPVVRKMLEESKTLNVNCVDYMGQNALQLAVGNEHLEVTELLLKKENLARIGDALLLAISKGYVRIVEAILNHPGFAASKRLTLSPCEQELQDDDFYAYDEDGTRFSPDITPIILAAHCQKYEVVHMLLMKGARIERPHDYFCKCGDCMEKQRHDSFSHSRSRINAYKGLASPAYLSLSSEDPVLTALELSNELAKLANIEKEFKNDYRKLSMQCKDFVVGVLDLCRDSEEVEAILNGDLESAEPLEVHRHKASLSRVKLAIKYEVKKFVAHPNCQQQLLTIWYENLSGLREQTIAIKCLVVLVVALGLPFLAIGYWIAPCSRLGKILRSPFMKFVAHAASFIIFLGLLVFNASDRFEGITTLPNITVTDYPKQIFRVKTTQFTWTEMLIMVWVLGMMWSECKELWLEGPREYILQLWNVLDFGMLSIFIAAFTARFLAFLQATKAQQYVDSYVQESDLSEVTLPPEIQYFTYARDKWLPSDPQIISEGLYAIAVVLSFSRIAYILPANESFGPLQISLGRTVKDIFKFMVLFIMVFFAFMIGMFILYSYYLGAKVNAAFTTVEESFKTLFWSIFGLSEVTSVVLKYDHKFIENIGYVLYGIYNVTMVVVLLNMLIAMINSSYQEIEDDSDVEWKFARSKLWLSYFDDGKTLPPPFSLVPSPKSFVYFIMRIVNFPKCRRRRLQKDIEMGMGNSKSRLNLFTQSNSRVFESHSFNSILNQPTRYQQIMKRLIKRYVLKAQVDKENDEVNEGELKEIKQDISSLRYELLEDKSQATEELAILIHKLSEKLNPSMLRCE
Description: Inhibition of human recombinant TRPC3 expressed in HEK293-MSRII cells assessed as carbachol-stimulated Ca2+/Na+ influx after 10 mins by FLIPR assay. The class given is cell-based.

Data set [3] deals with Rattus norvegicus. In words: Dose normalized AUC in rat at 1.05 mg/kg, iv. The class given is ADME, organism-based. Further details: dose 1.05 mg/kg, route intravenous. The note with it: in vivo.
Data set [4] can be described thus: Oral bioavailability in rat at 1.05 mg/kg. The data set is classed as ADME, organism-based. The note with it: in vivo.
Data set [5] is described as follows: Mean residence time in rat at 1.05 mg/kg, iv. The class given is ADME, organism-based. The arrangement: dose 1.05 mg/kg, route intravenous. As to conditions: in vivo.
A short description of data set [6]: Cmax in rat at 1.05 mg/kg, iv. As to conditions: in vivo. The arrangement: dose 1.05 mg/kg, route intravenous. The class given is ADME, organism-based.
Data set [7] in a line: Clearance in rat at 1.05 mg/kg, iv. The class given is ADME, organism-based. Further details: dose 1.05 mg/kg, route intravenous. As to conditions: in vivo.
A short description of data set [8]: Oral bioavailability in rat at 0.86 mg/kg. As to conditions: in vivo. The class given is ADME, organism-based.
Data set [9] is described as follows: Cmax in rat at 0.86 mg/kg, iv. The class given is ADME, organism-based. The arrangement: dose 0.86 mg/kg, route intravenous. As to conditions: in vivo.
Data set [10] concerns Rattus norvegicus. In words: Dose normalized AUC in rat at 0.86 mg/kg, iv. The data set is classed as ADME, organism-based. The arrangement: dose 0.86 mg/kg, route intravenous. The note with it: in vivo.
Data set [11] is described as follows: Clearance in rat at 0.86 mg/kg, iv. Further details: dose 0.86 mg/kg, route intravenous. As to conditions: in vivo. The class given is ADME, organism-based.
Data set [12] can be described thus: Mean residence time in rat at 0.86 mg/kg, iv. As to conditions: in vivo. The data set is classed as ADME, organism-based. The arrangement: dose 0.86 mg/kg, route intravenous.
Data set [13] in a line: Mean residence time in rat at 0.82 mg/kg, iv. The arrangement: dose 0.82 mg/kg, route intravenous. The data set is classed as ADME, organism-based. As to conditions: in vivo.
Data set [14] in a line: Clearance in rat at 0.82 mg/kg, iv. The class given is ADME, organism-based. Further details: dose 0.82 mg/kg, route intravenous. The note with it: in vivo.
The target of data set [15] is Transient receptor potential cation channel subfamily V member 4 (Homo sapiens, UniProt Q9HBA0). Description: Inhibition of TRPV4 (unknown origin) by FLIPR assay.
Sequence of Transient receptor potential cation channel subfamily V member 4 (Q9HBA0 whole entry): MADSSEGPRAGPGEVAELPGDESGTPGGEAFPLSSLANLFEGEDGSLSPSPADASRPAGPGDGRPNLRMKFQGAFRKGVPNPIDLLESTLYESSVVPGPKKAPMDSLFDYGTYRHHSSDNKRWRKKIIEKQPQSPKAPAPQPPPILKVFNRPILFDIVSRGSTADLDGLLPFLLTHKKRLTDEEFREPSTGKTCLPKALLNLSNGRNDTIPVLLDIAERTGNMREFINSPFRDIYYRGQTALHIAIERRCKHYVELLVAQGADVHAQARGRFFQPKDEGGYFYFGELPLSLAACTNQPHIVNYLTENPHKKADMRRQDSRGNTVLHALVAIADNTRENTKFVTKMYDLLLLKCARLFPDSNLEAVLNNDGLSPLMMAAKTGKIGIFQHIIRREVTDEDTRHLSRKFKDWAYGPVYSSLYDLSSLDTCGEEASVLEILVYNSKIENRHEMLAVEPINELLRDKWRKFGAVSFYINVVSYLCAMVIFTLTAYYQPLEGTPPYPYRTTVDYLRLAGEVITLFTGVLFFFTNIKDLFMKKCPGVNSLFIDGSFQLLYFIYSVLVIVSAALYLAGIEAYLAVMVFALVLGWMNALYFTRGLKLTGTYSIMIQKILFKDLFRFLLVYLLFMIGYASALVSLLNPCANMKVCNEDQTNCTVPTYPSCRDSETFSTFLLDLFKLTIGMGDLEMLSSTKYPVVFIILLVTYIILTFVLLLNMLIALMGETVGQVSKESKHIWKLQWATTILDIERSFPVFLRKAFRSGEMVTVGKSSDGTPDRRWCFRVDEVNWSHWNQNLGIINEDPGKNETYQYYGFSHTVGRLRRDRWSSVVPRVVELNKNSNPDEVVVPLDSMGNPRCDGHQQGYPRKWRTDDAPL
Data set [16] deals with Transient receptor potential cation channel subfamily V member 1 (Homo sapiens, UniProt Q8NER1). Description: Inhibition of TRPV1 (unknown origin) by FLIPR assay.
Sequence of Transient receptor potential cation channel subfamily V member 1 (Q8NER1 whole entry): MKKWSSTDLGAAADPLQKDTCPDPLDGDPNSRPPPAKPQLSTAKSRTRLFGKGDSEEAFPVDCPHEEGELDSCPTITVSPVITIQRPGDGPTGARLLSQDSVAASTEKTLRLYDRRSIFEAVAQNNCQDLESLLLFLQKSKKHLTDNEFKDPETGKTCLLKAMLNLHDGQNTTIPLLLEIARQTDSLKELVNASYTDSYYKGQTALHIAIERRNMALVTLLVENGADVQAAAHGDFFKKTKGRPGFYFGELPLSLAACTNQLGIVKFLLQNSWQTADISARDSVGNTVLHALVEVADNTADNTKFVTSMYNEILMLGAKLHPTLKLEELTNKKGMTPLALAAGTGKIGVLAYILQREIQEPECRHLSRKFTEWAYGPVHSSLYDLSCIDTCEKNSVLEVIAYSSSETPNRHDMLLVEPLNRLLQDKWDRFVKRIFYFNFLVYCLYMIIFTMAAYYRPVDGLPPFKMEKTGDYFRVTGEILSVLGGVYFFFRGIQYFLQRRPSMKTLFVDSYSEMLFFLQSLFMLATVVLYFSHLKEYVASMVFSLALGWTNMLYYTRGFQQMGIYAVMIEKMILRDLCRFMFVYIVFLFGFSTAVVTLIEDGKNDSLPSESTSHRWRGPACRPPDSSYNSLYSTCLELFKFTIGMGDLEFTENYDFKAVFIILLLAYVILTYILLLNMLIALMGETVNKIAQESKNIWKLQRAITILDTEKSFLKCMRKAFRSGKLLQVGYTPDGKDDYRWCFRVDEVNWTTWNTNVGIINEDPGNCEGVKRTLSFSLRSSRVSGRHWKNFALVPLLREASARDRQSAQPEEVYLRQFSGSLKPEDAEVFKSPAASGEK
Data set [17] has as its target Sodium channel protein type 5 subunit alpha (Homo sapiens, UniProt Q14524). Description: Inhibition of NaV1.5 channel (unknown origin) by patch express-based electrophysiology assay.
In data set [18] the test system is Rattus norvegicus. In words: Dose normalized AUC in rat at 0.82 mg/kg, iv. As to conditions: in vivo. The arrangement: dose 0.82 mg/kg, route intravenous. The class given is ADME, organism-based.
Data set [19] deals with Voltage-dependent L-type calcium channel subunit alpha-1C (Homo sapiens, UniProt Q13936). In words: Inhibition of CaV1.2 channel (unknown origin) by patch express-based electrophysiology assay.
Sequence of Voltage-dependent L-type calcium channel subunit alpha-1C (Q13936 whole entry): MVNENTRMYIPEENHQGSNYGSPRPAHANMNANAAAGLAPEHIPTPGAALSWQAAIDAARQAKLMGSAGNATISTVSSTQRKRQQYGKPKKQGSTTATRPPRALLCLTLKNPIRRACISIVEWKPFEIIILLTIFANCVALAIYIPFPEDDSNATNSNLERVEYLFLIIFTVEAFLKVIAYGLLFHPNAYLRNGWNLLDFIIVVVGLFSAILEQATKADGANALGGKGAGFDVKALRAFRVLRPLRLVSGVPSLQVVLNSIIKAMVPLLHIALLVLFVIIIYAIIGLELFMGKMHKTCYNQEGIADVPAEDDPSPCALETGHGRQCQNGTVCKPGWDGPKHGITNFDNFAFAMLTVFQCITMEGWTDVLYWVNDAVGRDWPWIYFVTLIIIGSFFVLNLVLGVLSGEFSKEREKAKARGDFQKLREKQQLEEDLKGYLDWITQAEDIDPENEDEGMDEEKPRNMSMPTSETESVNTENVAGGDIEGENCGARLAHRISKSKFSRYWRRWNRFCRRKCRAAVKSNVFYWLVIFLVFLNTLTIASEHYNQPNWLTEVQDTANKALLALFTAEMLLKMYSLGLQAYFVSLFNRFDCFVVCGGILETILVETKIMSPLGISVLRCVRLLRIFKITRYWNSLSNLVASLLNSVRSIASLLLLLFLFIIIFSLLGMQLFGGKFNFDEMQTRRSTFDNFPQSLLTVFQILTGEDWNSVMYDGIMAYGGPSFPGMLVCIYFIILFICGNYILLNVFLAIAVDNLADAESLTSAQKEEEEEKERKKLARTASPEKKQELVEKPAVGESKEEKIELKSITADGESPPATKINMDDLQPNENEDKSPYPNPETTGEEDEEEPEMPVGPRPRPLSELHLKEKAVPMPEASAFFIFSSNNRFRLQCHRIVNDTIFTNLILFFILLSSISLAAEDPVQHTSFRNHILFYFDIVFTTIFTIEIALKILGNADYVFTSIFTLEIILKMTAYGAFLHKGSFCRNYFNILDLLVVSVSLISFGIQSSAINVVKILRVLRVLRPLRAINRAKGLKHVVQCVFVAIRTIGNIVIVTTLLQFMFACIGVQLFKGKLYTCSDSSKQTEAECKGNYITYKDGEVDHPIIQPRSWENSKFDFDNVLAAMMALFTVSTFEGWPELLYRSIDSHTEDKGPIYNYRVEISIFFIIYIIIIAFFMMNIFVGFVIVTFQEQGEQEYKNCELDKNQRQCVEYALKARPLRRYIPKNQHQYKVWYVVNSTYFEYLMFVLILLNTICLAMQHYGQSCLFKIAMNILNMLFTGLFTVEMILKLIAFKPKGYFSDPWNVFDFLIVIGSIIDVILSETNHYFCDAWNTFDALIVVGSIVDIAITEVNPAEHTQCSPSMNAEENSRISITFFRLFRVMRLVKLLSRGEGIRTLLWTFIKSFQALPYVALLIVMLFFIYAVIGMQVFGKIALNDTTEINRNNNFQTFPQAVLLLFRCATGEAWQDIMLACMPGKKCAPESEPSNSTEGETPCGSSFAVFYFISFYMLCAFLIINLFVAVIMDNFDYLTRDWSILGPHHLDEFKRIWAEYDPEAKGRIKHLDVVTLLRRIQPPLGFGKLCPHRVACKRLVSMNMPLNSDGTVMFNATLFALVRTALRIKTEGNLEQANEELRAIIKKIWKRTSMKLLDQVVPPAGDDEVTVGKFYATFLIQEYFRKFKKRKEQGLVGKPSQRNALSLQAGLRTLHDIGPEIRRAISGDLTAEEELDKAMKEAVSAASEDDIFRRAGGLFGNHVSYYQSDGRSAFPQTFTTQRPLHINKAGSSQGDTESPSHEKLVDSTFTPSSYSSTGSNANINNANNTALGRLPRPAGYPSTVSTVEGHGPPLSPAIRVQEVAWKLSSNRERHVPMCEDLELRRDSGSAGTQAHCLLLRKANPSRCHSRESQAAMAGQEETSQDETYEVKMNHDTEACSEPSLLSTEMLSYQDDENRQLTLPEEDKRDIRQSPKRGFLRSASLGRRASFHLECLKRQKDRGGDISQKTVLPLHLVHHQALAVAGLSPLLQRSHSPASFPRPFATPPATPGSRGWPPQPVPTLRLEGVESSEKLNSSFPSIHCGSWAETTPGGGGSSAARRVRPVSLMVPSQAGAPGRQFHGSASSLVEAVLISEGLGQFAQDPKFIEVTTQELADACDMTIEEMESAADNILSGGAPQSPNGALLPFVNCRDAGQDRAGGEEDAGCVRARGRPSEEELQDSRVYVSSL
Data set [20] addresses Transient receptor potential cation channel subfamily A member 1 (Homo sapiens, UniProt O75762). Description: Inhibition of TRPA1 (unknown origin) by FLIPR assay.
The nature of data set [21]: Cmax in rat at 0.82 mg/kg, iv. As to conditions: in vivo. Further details: dose 0.82 mg/kg, route intravenous. The data set is classed as ADME, organism-based.
Data set [22] can be described thus: Oral bioavailability in rat at 0.82 mg/kg. The data set is classed as ADME, organism-based. As to conditions: in vivo.

Sequence of Transient receptor potential cation channel subfamily A member 1 (O75762 whole entry): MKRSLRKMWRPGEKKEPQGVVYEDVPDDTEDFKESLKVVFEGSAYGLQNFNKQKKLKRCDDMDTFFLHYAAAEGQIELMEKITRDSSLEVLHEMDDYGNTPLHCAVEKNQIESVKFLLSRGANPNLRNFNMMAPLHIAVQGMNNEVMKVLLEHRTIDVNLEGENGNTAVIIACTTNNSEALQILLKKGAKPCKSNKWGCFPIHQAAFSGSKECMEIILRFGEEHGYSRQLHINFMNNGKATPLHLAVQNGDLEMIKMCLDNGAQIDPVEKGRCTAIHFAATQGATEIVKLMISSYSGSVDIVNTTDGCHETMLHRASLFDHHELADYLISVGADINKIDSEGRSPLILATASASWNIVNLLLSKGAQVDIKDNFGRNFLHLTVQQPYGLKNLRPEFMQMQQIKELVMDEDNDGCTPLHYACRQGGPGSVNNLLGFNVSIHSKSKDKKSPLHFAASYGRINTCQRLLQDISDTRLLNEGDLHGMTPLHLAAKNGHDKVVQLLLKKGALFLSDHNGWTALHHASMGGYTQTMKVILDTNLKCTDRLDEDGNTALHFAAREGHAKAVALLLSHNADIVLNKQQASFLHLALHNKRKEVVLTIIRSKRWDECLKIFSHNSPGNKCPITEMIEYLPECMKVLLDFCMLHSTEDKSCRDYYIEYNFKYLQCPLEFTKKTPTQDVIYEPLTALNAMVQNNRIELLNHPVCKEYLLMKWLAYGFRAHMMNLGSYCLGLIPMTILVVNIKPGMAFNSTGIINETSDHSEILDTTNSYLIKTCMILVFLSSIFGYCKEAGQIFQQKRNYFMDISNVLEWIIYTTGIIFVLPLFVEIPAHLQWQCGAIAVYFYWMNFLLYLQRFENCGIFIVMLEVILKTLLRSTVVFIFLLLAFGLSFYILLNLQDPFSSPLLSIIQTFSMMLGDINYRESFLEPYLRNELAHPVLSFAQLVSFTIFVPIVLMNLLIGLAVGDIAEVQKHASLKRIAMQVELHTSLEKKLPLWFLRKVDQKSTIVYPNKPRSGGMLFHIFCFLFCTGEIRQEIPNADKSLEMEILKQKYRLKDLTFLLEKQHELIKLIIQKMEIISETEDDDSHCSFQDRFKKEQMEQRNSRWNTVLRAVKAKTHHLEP

What is called IC50 is the concentration that gives 50% inhibition. Turning to `O=C(c1csc(Nc2ccc3c(c2)OCO3)n1)N1CCc2ccccc2C1`, the IC50 amounted to 160 nM in data set [1] and 500 nM in data set [2].

Take `Cc1ccc(Nc2nc(C(=O)N3CCCCC3C)cs2)cc1` (configuration not stated): the IC50 turned out to be 630 nM in [1] and 800 nM in data set [2].

For `CC1CCN(C(=O)c2csc(Nc3ccc(Cl)cc3F)n2)CC1`, the IC50 in [1] came out at 630 nM; in data set [2], 1600 nM.

On to `CC1c2ccccc2CCN1C(=O)c1csc(Nc2ccc3c(c2)OCO3)n1` (configuration not stated), for which the IC50 in [1] came out at 63 nM; in data set [2], 316 nM.

The term bioavailability denotes dose-corrected exposure relative to a reference, in per cent. Low values mean little systemic uptake, high ones much systemic uptake. Usually MRT stands for the average time that molecules of a dose stay in the body. By Cmax is commonly meant the peak of the concentration-time curve. As a reminder, the clearance is a measure of how efficiently the substance is removed, as volume per time. Take `CC1CCCN(C(=O)c2csc(Nc3ccc4c(c3)OCO4)n2)C1C` (configuration not stated): the IC50 is 16 nM in data set [1] and 80 nM in data set [2]. For the same compound, the AUC/dose with Rattus norvegicus [3] was 0.2 kg·L·h. The same compound returned a bioavailability in [4] of under 1%. In addition, in data set [5], the MRT amounted to 126 min. The compound also displayed a Cmax in [6] of 340 ng/mL. The same compound had a clearance in data set [7] of 86 mL/min/kg.

Take `Cc1sc(Nc2ccc(Cl)cc2F)nc1C(=O)N1CCC[C@@H](C)[C@H]1C`: the concentration for half-maximal inhibition (IC50) in [1] was found to be 1600 nM; in [2], 1000 nM.

Turning to `CC1CCCN(C(=O)c2nc(Nc3cc4c(cc3F)OCO4)sc2Cl)C1C` (configuration not stated), the figures for the concentration for half-maximal inhibition (IC50) in data set [1] and in [2] were 4 nM and 32 nM, respectively. In addition, in data set [8], the bioavailability turned out to be 7%. For the same compound, the peak level in data set [9] (Cmax) was 490 ng/mL. The compound further showed an AUC/dose with Rattus norvegicus [10] of 0.3 kg·L·h. Also, the clearance in data set [11] came to 46 mL/min/kg. In data set [12], this compound yielded an MRT of 24 min.

`Cc1sc(Nc2ccc(Cl)cc2F)nc1C(=O)N1CCCC(C)C1C` (racemic): the IC50 turned out to be 50 nM in [1] and 250 nM in [2].

As to `Cc1ccc(Nc2nc(C(=O)N3CCCCC3c3ccccc3)cs2)cc1` (configuration not stated), the IC50 in data set [1] worked out at 15800 nM; in data set [2], 12600 nM.

As to `Cc1sc(Nc2ccc(Cl)cc2F)nc1C(=O)N1CCC[C@H](C)[C@@H]1C`, the IC50 in [1] amounted to 16 nM; in data set [15] it was 12500 nM; in [16], 6300 nM; in data set [17], 3300 nM; in data set [19], 10000 nM; in data set [2], 100 nM. Also, in data set [20], 25000 nM corresponded to half-maximal inhibition (IC50). In data set [13], this compound showed an MRT of 42 min. The compound also yielded a clearance in [14] of 150 mL/min/kg. The compound also returned an AUC/dose in the data set on Rattus norvegicus [18] of 0.1 kg·L·h. Further, the Cmax in [21] came out at 120 ng/mL. The compound also returned a bioavailability in [22] of 64%.

For the compound `Cc1sc(Nc2ccc3c(c2)OCO3)nc1C(=O)N1CCc2ccccc2C1C` (configuration not stated), the results for the IC50 in data set [1] and in data set [2] were 32 nM and 316 nM, respectively.

For the origin of these results see ChEMBL document CHEMBL2417435, “The discovery of potent blockers of the canonical transient receptor channels, TRPC3 and TRPC6, based on an anilino-thiazole pharmacophore” (Bioorg Med Chem Lett, 2013).
